Read-outs that look alike come from different tables or passages of the source.
Target: T1, FAAH (Rattus norvegicus, UniProt P97612)
T1 construct: Preparation of Rat Brain Membranes Preparations (FAAH Enzyme Solution); from tissue; host or cells: rat cerebrum (brain membrane preparation)
T1 sequence (P97612 1-579): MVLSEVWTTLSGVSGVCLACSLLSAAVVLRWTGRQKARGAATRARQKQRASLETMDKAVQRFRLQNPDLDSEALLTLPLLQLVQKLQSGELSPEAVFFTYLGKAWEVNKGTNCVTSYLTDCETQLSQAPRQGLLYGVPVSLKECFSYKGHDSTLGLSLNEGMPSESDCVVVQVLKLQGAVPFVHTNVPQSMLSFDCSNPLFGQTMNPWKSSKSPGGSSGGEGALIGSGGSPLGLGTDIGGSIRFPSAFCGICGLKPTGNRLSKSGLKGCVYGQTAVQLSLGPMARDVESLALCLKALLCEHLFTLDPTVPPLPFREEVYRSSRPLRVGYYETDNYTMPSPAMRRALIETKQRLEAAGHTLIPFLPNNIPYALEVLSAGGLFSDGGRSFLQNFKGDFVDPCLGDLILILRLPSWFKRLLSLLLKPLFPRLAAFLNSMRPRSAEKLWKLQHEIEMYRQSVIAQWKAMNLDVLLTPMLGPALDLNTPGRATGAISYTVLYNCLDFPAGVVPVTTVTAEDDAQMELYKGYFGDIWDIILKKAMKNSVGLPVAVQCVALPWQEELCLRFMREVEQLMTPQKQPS
Test: Determination of FAAH inhibitory activity in rat (rat brain membrane preparations, [3H]-anandamide hydrolysis)
Format: biochemical
Conditions: rat brain membrane preparations; for IC50: read-out: FAAH Inhibition IC50
How it was run: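 Compounds tested from 0.1 nM to 1 μM to derive IC50 against FAAH hydrolysis in rat brain membrane preparations (100 μg/mL). A 10-min 37 °C preincubation was followed by 10 min with [3H]-anandamide (2 nM) mixed with 2 μM unlabelled anandamide. Radioactive ethanolamine was extracted into the water/methanol layer and counted.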

[1] = 100 nM test substance, read-out: FAAH Inhibition, Inhibition Rate at 100 nM
[2] = at 100 nM, read-out: FAAH Inhibition Inhibition Rate at 100 nM

Row | SMILES | inhibition at 0.1 µM [1] | IC50 (test substance 0.1 nM to 1 μM) | inhibition at 0.1 µM [2] | IC50
1 | COc1cccc(-c2ncc3c(n2)n(C)c(=O)n3C(=O)N2CCC(=Cc3ccc(Cl)cc3)CC2)c1 [Example 102, 7-{[4-(4-Chlorobenzylidene)piperidin-1-yl]carbonyl}-2-(3-methoxyphenyl)-9-methyl-7,9-dihydro-8H-purine-8-one] | 101% | 5 nM |  | 
2 | Cn1c(=O)n(C(=O)N2CCCC2)c2nc(/C=C/c3cccc(C(F)(F)F)c3)ncc21 [Example 244, 7-Methyl-9-(pyrrolidin-1-ylcarbonyl)-2-{(E)-2-[3-(trifluoromethyl)phenyl]ethenyl}-7,9-dihydro-8H-purine-8-one] | 86% | 11 nM |  | 
3 | Cn1c(=O)n(C(=O)N2CCC2)c2nc(-c3ccc(F)cc3)ncc21 [compound 354] | 79% | 52 nM |  | 
4 | COc1cccc(-c2ncc3c(n2)n(C)c(=O)n3C(=O)N2CCN(c3ccccc3)CC2)c1 [Example 140, 2-(3-Methoxyphenyl)-9-methyl-7-[(4-phenylpiperazin-1-yl)carbonyl]-7,9-dihydro-8H-purine-8-one] | 99% | 7 nM |  | 
5 | Cc1ccc(-c2ncc3c(n2)n(C)c(=O)n3C(=O)N2CCCC2)cc1F [compound 192] | 103% | 39 nM |  | 
6 | Cc1ccc(N2CCN(C(=O)n3c(=O)n(C)c4nc(-c5ccccc5)ncc43)CC2)cc1 [Example 128, 9-Methyl-7-{[4-(4-methylphenyl)piperazin-1-yl]carbonyl}-2-phenyl-7,9-dihydro-8H-purine-8-one] | 99% | 7 nM |  | 
7 | COc1cccc(-c2ncc3c(n2)n(C)c(=O)n3C(=O)N2CCN(CCC3CCCCC3)CC2)c1 [Example 100, 7-{[4-(2-Cyclohexylethyl)piperazin-1-yl]carbonyl}-2-(3-methoxyphenyl)-9-methyl-7,9-dihydro-8H-purine-8-one] | 100% | 9 nM |  | 
8 | CCN(C)C(=O)n1c(=O)n(C)c2cnc(-c3cccc(OC(F)F)c3)nc21 [compound 343] | 95% | 14 nM |  | 
9 | CN(C)C(=O)n1c(=O)n(C)c2cnc(-c3cccc(OC(F)F)c3)nc21 [Example 331, 2-[3-(Difluoromethoxy)phenyl]-N,N,7-trimethyl-8-oxo-7,8-dihydro-9H-purine-9-carboxamide] | 77% | 33 nM |  | 
10 | CN1CCN(C(=O)n2c(=O)n(C)c3nc(-c4ccccc4)ncc32)CC1 [Example 26] | 38% | > 100 nM |  | 
11 | CN(C)C(=O)n1c(=O)n(C)c2cnc(-c3ccc(OCC(F)(F)F)cc3)nc21 [Example 334, N,N,7-Trimethyl-8-oxo-2-[4-(2,2,2-trifluoroethoxy)phenyl]-7,8-dihydro-9H-purine-9-carboxamide] | 88% | 25 nM |  | 
12 | COc1cccc(-c2ncc3c(n2)n(C)c(=O)n3C(=O)N(C)C)c1 [Example 48, 2-(3-Methoxyphenyl)-N,N,9-trimethyl-8-oxo-8,9-dihydro-7H-purine-7-carboxamide] | 100% | 4 nM |  | 
13 | CN(C)C(=O)n1c(=O)n(C)c2cnc(CCc3cccc(F)c3F)nc21 [compound 550] | 87% | 20 nM |  | 
14 | Cn1c(=O)n(C(=O)N2CCCC2)c2nc(Cc3ccc(F)cc3F)ncc21 [Example 296, 2-(2,4-Difluorobenzyl)-7-methyl-9-(pyrrolidin-1-ylcarbonyl)-7,9-dihydro-8H-purine-8-one] | 92% | 45 nM |  | 
15 | COc1cccc(-c2ncc3c(n2)n(C)c(=O)n3C(=O)N(C)Cc2ccc(Cl)cc2)c1 [Example 78, N-(4-Chlorobenzyl)-2-(3-methoxyphenyl)-N,9-dimethyl-8-oxo-8,9-dihydro-7H-purine-7-carboxamide] | 108% | 10 nM |  | 
16 | CCN(C)C(=O)n1c(=O)n(C)c2cnc(-c3cccc(Cl)c3)nc21 [compound 342] | 76% | 52 nM |  | 
17 | CN(C)C(=O)n1c(=O)n(C)c2nc(-c3cccnc3)ncc21 [Example 143, N,N,9-Trimethyl-8-oxo-2-(pyridin-3-yl)-8,9-dihydro-7H-purine-7-carboxamide] | 100% | 15 nM |  | 
18 | CN(C)C(=O)n1c(=O)n(C)c2cnc(COc3cccc(OC(F)F)c3)nc21 [Example 431] | 60% | 94 nM |  | 

Other lines, results leading:

Row | inhibition at 0.1 µM [1] | IC50 (test substance 0.1 nM to 1 μM) | inhibition at 0.1 µM [2] | IC50 | SMILES
19 | 113% | 2 nM |  |  | COCc1ncc2c(n1)n(C)c(=O)n2C(=O)N1CC[C@H](Oc2ccccc2C)C1 [Example 486, 2-(Methoxymethyl)-9-methyl-7-{[(3S)-3-(2-methylphenoxy)pyrrolidin-1-yl]carbonyl}-7,9-dihydro-8H-purine-8-one]
20 | 102% | 5 nM |  |  | Cn1c(=O)n(C(=O)N2CCC2)c2cnc(-c3ccccc3)nc21 [Example 23, 7-(Azetidin-1-ylcarbonyl)-9-methyl-2-phenyl-7,9-dihydro-8H-purine-8-one]
21 | 69% | 99 nM |  |  | Cn1c(=O)n(C(=O)N2CCC2)c2cnc(COc3ccccc3F)nc21 [compound 408]
22 | 99% | 5 nM |  |  | CCOc1ccc(C2CN(C(=O)n3c(=O)n(C)c4nc(CCCOC)ncc43)C2)cc1 [Example 385]
23 | 70% | 92 nM |  |  | Cn1c(=O)n(C(=O)N2CCC2)c2cnc(COc3cccc(Cl)c3)nc21 [compound 407]
24 | 99% | 4 nM |  |  | CCOc1ccc(N2CCN(C(=O)n3c(=O)n(C)c4nc(-c5ccccc5)ncc43)CC2)cc1 [Example 131, 7-{[4-(4-Ethoxyphenyl)piperazin-1-yl]carbonyl}-9-methyl-2-phenyl-7,9-dihydro-8H-purine-8-one]
25 | 105% | 11 nM |  |  | CCOc1ccc(C2CN(C(=O)n3c(=O)n(C)c4nc(CCOC)ncc43)C2)cc1 [compound 392]
26 | 102% | 10 nM |  |  | Cn1c(=O)n(C(=O)N2CCC2)c2nc(CCc3ccc(Cl)cc3)ncc21 [compound 575]
27 | 84% | 64 nM |  |  | CN(C)C(=O)n1c(=O)n(C)c2cnc(COc3cccc(Cl)c3)nc21 [Example 414]
28 | 96% | 10 nM |  |  | CN(CCc1ccc(Cl)cc1)C(=O)n1c(=O)n(C)c2nc(C3CCCCC3)ncc21 [Example 156, N-[2-(4-Chlorophenyl)ethyl]-2-cyclohexyl-N,9-dimethyl-8-oxo-8,9-dihydro-7H-purine-7-carboxamide]
29 | 85% | 13 nM |  |  | CN(C)C(=O)n1c(=O)n(C)c2cnc(CCc3ccc(C4CC4)cc3)nc21 [compound 521]
30 | 53% | 99 nM |  |  | CN(C)C(=O)n1c(=O)n(C)c2cnc(CCc3ccc(F)cc3)nc21 [Example 533, 2-[2-(4-Fluorophenyl)ethyl]-N,N,7-trimethyl-8-oxo-7,8-dihydro-9H-purine-9-carboxamide]
31 |  |  | 99% | 7 nM | COCc1ncc2c(n1)n(C1CC1)c(=O)n2C(=O)N1CC(c2cccc(F)c2)C1 [compound 665]
32 |  |  | 128% | 4 nM | CCCc1ncc2c(n1)n(C)c(=O)n2C(=O)N1CC(c2ccccc2)C1 [compound 626]
33 | 92% | 41 nM |  |  | Cn1c(=O)n(C(=O)N2CCCC2)c2cnc(Cc3ccc(F)cc3F)nc21 [Example 266, 2-(2,4-Difluorobenzyl)-9-methyl-7-(pyrrolidin-1-ylcarbonyl)-7,9-dihydro-8H-purine-8-one]
34 | 61% | 75 nM |  |  | CCCOc1cccc(CCc2ncc3c(n2)n(C(=O)N(C)C)c(=O)n3C)c1 [compound 535]
35 | 92% | 22 nM |  |  | CCOc1cccc(C2CN(C(=O)n3c(=O)n(C)c4nc(CCCOC)ncc43)C2)c1 [Example 387]
36 | 98% | 15 nM |  |  | Cn1c(=O)n(C(=O)N2CCCC2)c2cnc(/C=C/c3ccc(F)cc3)nc21 [Example 5, 2-[(E)-2-(4-Fluorophenyl)ethenyl]-9-methyl-7-(pyrrolidin-1-ylcarbonyl)-7,9-dihydro-8H-purine-8-one]
37 | 84% | 28 nM |  |  | COCc1ncc2c(n1)n(C)c(=O)n2C(=O)N1CC(c2cccc(OC(F)(F)F)c2)C1 [compound 449]
38 | 101% | 7 nM |  |  | CCOc1cccc(-c2ncc3c(n2)n(C)c(=O)n3C(=O)N2CCCC2)c1 [compound 175]
39 | 104% | 10 nM |  |  | Cn1c(=O)n(C(=O)N2CCC2)c2nc(-c3ccc(OC(F)(F)F)cc3)ncc21 [compound 351]
40 | 58% | 75 nM |  |  | COc1ccccc1Cc1ncc2c(n1)n(C(=O)N1CCCC1)c(=O)n2C [compound 291]
41 | 93% | 20 nM |  |  | Cn1c(=O)n(C(=O)N2CCC2)c2cnc(COc3ccccc3)nc21 [compound 403]

Source: US8735406B2, “8-oxodihydropurine derivative” (Dainippon Sumitomo Pharma Co., Ltd., priority 2009, dated 2014)
